The text below walks through data of the NIST ThermoML archive (doi:10.1016/j.fluid.2014.04.002).

Numbers after ± are expanded uncertainties.

The first series in a line: xn = mol fraction of the nth substance listed. Particulars: 288.15 K; 101 kPa; Liquid; Concentric cylinders viscometry; x1 = 1.
One may read the viscosity as the resistance of a fluid to flow. For `CCOC(=O)C(C)O` (stereo not drawn) [DL-ethyl lactate] + COCCOCCOCCOCCOC, the viscosity turned out to be 3.207 ± 0.062 mPa·s.

The same series, now with this note: 288.15 K; 101 kPa; Liquid; Concentric cylinders viscometry; x2 = 0.
For the compound `CC(O)CO` (centres undefined) [1,2-propanediol] + CCOC(=O)C(C)O, the viscosity was 82.54 ± 1.5 mPa·s.
With `OCCCO` [propan-1,3-diol] + CCOC(=O)C(C)O, the viscosity is on record as 67.3 ± 1.3 mPa·s.
Consider `C1CCOC1` [tetrahydrofuran] + CCOC(=O)C(C)O, for which the viscosity was determined as 0.5252 ± 0.01 mPa·s.

Staying with this series, now noted: 288.15 K; 101 kPa; Liquid; Vibrating tube method; x1 = 1.
One may read the mass density as mass per unit of volume. Consider `CCOC(=O)C(C)O` (stereo not drawn) [DL-ethyl lactate] + COCCOCCOCCOCCOC, for which the mass density was determined as 1039.28 ± 0.92 kg/m3.

The series is the same for the next values; noted with them: 288.15 K; 101 kPa; Liquid; Vibrating tube method; x2 = 0.
Regarding `CC(O)CO` (centres undefined) [1,2-propanediol] + CCOC(=O)C(C)O, the mass density was found to be 1039.87 ± 0.26 kg/m3.
Same read-out and setting: with `OCCCO` [propan-1,3-diol] + CCOC(=O)C(C)O the figure was 1055.89 ± 0.95 kg/m3; with `C1CCOC1` [tetrahydrofuran] + CCOC(=O)C(C)O, 893.293 ± 0.23 kg/m3.

The series is the same for the next values; noted with them: 293.15 K; 101 kPa; Liquid; Concentric cylinders viscometry; x1 = 1.
Consider `CCOC(=O)C(C)O` (stereo not drawn) [DL-ethyl lactate] + COCCOCCOCCOCCOC, for which the viscosity is on record as 2.75 ± 0.053 mPa·s.

Staying with this series, now noted: 293.15 K; 101 kPa; Liquid; Concentric cylinders viscometry; x2 = 0.
For the compound `CC(O)CO` (centres undefined) [1,2-propanediol] + CCOC(=O)C(C)O, the viscosity came out at 56.62 ± 0.97 mPa·s.
Take `OCCCO` [propan-1,3-diol] + CCOC(=O)C(C)O: the viscosity is listed as 52.52 ± 1 mPa·s.
On the same count and under the same terms, the figure for `C1CCOC1` [tetrahydrofuran] + CCOC(=O)C(C)O is 0.5048 ± 0.0098 mPa·s.

Still in this series, the particulars now being: 293.15 K; 101 kPa; Liquid; Vibrating tube method; x1 = 1.
For `CCOC(=O)C(C)O` (stereo not drawn) [DL-ethyl lactate] + COCCOCCOCCOCCOC, the mass density was 1033.84 ± 0.91 kg/m3.

Still in this series, the particulars now being: 293.15 K; 101 kPa; Liquid; Vibrating tube method; x2 = 0.
As to `CC(O)CO` (centres undefined) [1,2-propanediol] + CCOC(=O)C(C)O, the mass density is listed as 1036.25 ± 0.26 kg/m3.
With `OCCCO` [propan-1,3-diol] + CCOC(=O)C(C)O, the mass density is 1052.8 ± 0.95 kg/m3.
Take `C1CCOC1` [tetrahydrofuran] + CCOC(=O)C(C)O: the mass density came to 887.865 ± 0.23 kg/m3.

The same series, now with this note: 298.15 K; 101 kPa; Liquid; Concentric cylinders viscometry; x1 = 1.
As for `CCOC(=O)C(C)O` (stereo not drawn) [DL-ethyl lactate] + COCCOCCOCCOCCOC, the viscosity came out at 2.39 ± 0.046 mPa·s.

Still in this series, the particulars now being: 298.15 K; 101 kPa; Liquid; Concentric cylinders viscometry; x2 = 0.
On to `CC(O)CO` (centres undefined) [1,2-propanediol] + CCOC(=O)C(C)O, for which the viscosity was found to be 44.03 ± 0.76 mPa·s.
With `OCCCO` [propan-1,3-diol] + CCOC(=O)C(C)O, the viscosity is 41.51 ± 0.8 mPa·s.
Take `C1CCOC1` [tetrahydrofuran] + CCOC(=O)C(C)O: the viscosity stood at 0.4847 ± 0.0095 mPa·s.

Still in this series, the particulars now being: 298.15 K; 101 kPa; Liquid; Vibrating tube method; x1 = 1.
On to `CCOC(=O)C(C)O` (stereo not drawn) [DL-ethyl lactate] + COCCOCCOCCOCCOC, for which the mass density is listed as 1028.39 ± 0.9 kg/m3.

The same series, now with this note: 298.15 K; 101 kPa; Liquid; Vibrating tube method; x2 = 0.
Regarding `CC(O)CO` (centres undefined) [1,2-propanediol] + CCOC(=O)C(C)O, the mass density is recorded as 1032.59 ± 0.26 kg/m3.
As to `OCCCO` [propan-1,3-diol] + CCOC(=O)C(C)O, the mass density is on record as 1049.69 ± 0.94 kg/m3.
For `C1CCOC1` [tetrahydrofuran] + CCOC(=O)C(C)O, the mass density stood at 882.403 ± 0.23 kg/m3.

The same series, now with this note: 303.15 K; 101 kPa; Liquid; Concentric cylinders viscometry; x1 = 1.
Consider `CCOC(=O)C(C)O` (stereo not drawn) [DL-ethyl lactate] + COCCOCCOCCOCCOC, for which the viscosity stood at 2.097 ± 0.041 mPa·s.

The series is the same for the next values; noted with them: 303.15 K; 101 kPa; Liquid; Concentric cylinders viscometry; x2 = 0.
Turning to `CC(O)CO` (centres undefined) [1,2-propanediol] + CCOC(=O)C(C)O, the viscosity is recorded as 33.16 ± 0.57 mPa·s.
Consider `OCCCO` [propan-1,3-diol] + CCOC(=O)C(C)O, for which the viscosity was 33.2 ± 0.64 mPa·s.
Turning to `C1CCOC1` [tetrahydrofuran] + CCOC(=O)C(C)O, the viscosity was found to be 0.464 ± 0.0092 mPa·s.

The series is the same for the next values; noted with them: 303.15 K; 101 kPa; Liquid; Vibrating tube method; x1 = 1.
Regarding `CCOC(=O)C(C)O` (stereo not drawn) [DL-ethyl lactate] + COCCOCCOCCOCCOC, the mass density was found to be 1022.92 ± 0.88 kg/m3.

The series is the same for the next values; noted with them: 303.15 K; 101 kPa; Liquid; Vibrating tube method; x2 = 0.
Regarding `CC(O)CO` (centres undefined) [1,2-propanediol] + CCOC(=O)C(C)O, the mass density is reported as 1028.88 ± 0.25 kg/m3.
With `OCCCO` [propan-1,3-diol] + CCOC(=O)C(C)O, the mass density amounted to 1046.57 ± 0.93 kg/m3.
For `C1CCOC1` [tetrahydrofuran] + CCOC(=O)C(C)O, the mass density was 876.911 ± 0.23 kg/m3.

The same series, now with this note: 308.15 K; 101 kPa; Liquid; Concentric cylinders viscometry; x1 = 1.
`CCOC(=O)C(C)O` (stereo not drawn) [DL-ethyl lactate] + COCCOCCOCCOCCOC: the viscosity is reported as 1.858 ± 0.036 mPa·s.

The series is the same for the next values; noted with them: 308.15 K; 101 kPa; Liquid; Concentric cylinders viscometry; x2 = 0.
Consider `CC(O)CO` (centres undefined) [1,2-propanediol] + CCOC(=O)C(C)O, for which the viscosity was 25.45 ± 0.44 mPa·s.
As to `OCCCO` [propan-1,3-diol] + CCOC(=O)C(C)O, the viscosity was found to be 26.86 ± 0.52 mPa·s.
Still for that read-out and setting: the figure for `C1CCOC1` [tetrahydrofuran] + CCOC(=O)C(C)O is 0.4433 ± 0.0088 mPa·s.

Still in this series, the particulars now being: 308.15 K; 101 kPa; Liquid; Vibrating tube method; x1 = 1.
`CCOC(=O)C(C)O` (stereo not drawn) [DL-ethyl lactate] + COCCOCCOCCOCCOC: the mass density is recorded as 1017.42 ± 0.87 kg/m3.

Staying with this series, now noted: 308.15 K; 101 kPa; Liquid; Vibrating tube method; x2 = 0.
For the compound `CC(O)CO` (centres undefined) [1,2-propanediol] + CCOC(=O)C(C)O, the mass density is 1025.14 ± 0.25 kg/m3.
Take `OCCCO` [propan-1,3-diol] + CCOC(=O)C(C)O: the mass density is listed as 1043.43 ± 0.93 kg/m3.
In the case of `C1CCOC1` [tetrahydrofuran] + CCOC(=O)C(C)O, the mass density was found to be 871.384 ± 0.23 kg/m3.

The series is the same for the next values; noted with them: 313.15 K; 101 kPa; Liquid; Concentric cylinders viscometry; x1 = 1.
For `CCOC(=O)C(C)O` (stereo not drawn) [DL-ethyl lactate] + COCCOCCOCCOCCOC, the viscosity is 1.658 ± 0.032 mPa·s.

Still in this series, the particulars now being: 313.15 K; 101 kPa; Liquid; Concentric cylinders viscometry; x2 = 0.
Regarding `CC(O)CO` (centres undefined) [1,2-propanediol] + CCOC(=O)C(C)O, the viscosity came out at 19.85 ± 0.34 mPa·s.
As to `OCCCO` [propan-1,3-diol] + CCOC(=O)C(C)O, the viscosity came to 21.97 ± 0.42 mPa·s.
As to `C1CCOC1` [tetrahydrofuran] + CCOC(=O)C(C)O, the viscosity is on record as 0.4227 ± 0.0085 mPa·s.

The series is the same for the next values; noted with them: 313.15 K; 101 kPa; Liquid; Vibrating tube method; x1 = 1.
In the case of `CCOC(=O)C(C)O` (stereo not drawn) [DL-ethyl lactate] + COCCOCCOCCOCCOC, the mass density is on record as 1011.9 ± 0.86 kg/m3.

The series is the same for the next values; noted with them: 313.15 K; 101 kPa; Liquid; Vibrating tube method; x2 = 0.
As to `CC(O)CO` (centres undefined) [1,2-propanediol] + CCOC(=O)C(C)O, the mass density is given as 1021.35 ± 0.25 kg/m3.
Take `OCCCO` [propan-1,3-diol] + CCOC(=O)C(C)O: the mass density is given as 1040.28 ± 0.92 kg/m3.
For `C1CCOC1` [tetrahydrofuran] + CCOC(=O)C(C)O, the mass density was found to be 865.82 ± 0.23 kg/m3.

The same series, now with this note: 318.15 K; 101 kPa; Liquid; Concentric cylinders viscometry; x1 = 1.
Regarding `CCOC(=O)C(C)O` (stereo not drawn) [DL-ethyl lactate] + COCCOCCOCCOCCOC, the viscosity is reported as 1.491 ± 0.029 mPa·s.

The same series, now with this note: 318.15 K; 101 kPa; Liquid; Concentric cylinders viscometry; x2 = 0.
Regarding `CC(O)CO` (centres undefined) [1,2-propanediol] + CCOC(=O)C(C)O, the viscosity was 15.73 ± 0.27 mPa·s.
For `OCCCO` [propan-1,3-diol] + CCOC(=O)C(C)O, the viscosity was found to be 18.14 ± 0.35 mPa·s.
Regarding `C1CCOC1` [tetrahydrofuran] + CCOC(=O)C(C)O, the viscosity was determined as 0.4005 ± 0.0082 mPa·s.

The same series, now with this note: 318.15 K; 101 kPa; Liquid; Vibrating tube method; x1 = 1.
On to `CCOC(=O)C(C)O` (stereo not drawn) [DL-ethyl lactate] + COCCOCCOCCOCCOC, for which the mass density was 1006.36 ± 0.85 kg/m3.

The same series, now with this note: 318.15 K; 101 kPa; Liquid; Vibrating tube method; x2 = 0.
Consider `CC(O)CO` (centres undefined) [1,2-propanediol] + CCOC(=O)C(C)O, for which the mass density is on record as 1017.52 ± 0.24 kg/m3.
